Test results from ChEMBL document CHEMBL1135599, “Synthesis and evaluation of potent and selective beta(3) adrenergic receptor agonists containing acylsulfonamide, sulfonylsulfonamide, and sulfonylurea carboxylic acid isosteres” (J Med Chem, 2002).

Experiments:
[1] = target: T1, Beta-2 adrenergic receptor (Homo sapiens, UniProt P07550); experiment: concentration-response expressed as a percent of the maximal response to R-(-) isoprenaline (ISO).Emax is the fitted maximal value of the concentration; format: functional
Target sequence in this assay (P07550 whole entry, looked up): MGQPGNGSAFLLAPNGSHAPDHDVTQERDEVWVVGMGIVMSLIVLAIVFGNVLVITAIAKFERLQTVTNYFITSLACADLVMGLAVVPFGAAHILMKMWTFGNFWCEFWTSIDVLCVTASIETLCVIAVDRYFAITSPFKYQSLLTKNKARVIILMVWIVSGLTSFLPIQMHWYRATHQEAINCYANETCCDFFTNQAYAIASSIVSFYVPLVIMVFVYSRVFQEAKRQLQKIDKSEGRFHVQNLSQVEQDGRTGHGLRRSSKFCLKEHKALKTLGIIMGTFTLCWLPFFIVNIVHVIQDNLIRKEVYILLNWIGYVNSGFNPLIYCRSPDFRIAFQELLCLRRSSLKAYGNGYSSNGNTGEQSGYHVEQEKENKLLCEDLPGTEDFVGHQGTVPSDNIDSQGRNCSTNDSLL

[2] = target: T2, Beta-1 adrenergic receptor (Homo sapiens, UniProt P08588); experiment: (§1) concentration-response expressed as a percent of the maximal response to R-(-) isoproterenol (ISO).Emax is the fitted maximal value of the concentration; format: functional
Target sequence in this assay (P08588 whole entry, looked up): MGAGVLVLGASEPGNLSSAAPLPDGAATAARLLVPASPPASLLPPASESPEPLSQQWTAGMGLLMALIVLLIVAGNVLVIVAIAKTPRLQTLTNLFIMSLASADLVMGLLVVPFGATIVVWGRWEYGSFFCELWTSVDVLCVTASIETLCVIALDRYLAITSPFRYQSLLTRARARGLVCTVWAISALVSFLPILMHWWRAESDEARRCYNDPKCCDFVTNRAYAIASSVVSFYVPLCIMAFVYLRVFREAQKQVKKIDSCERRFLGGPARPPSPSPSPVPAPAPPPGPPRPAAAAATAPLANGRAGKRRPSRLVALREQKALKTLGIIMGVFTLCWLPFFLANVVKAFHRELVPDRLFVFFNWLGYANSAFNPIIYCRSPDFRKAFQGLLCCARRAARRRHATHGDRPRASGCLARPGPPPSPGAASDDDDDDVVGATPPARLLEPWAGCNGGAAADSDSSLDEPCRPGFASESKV

[3] = Selectivity ratio (Beta-1EC50/ Beta-3EC50); format: functional
[4] = target: T2, Beta-1 adrenergic receptor; experiment: Concentration that causes 50% inhibition of human beta 1 adrenergic receptor (AR), expressed in CHO cells.; format: functional, cell-based
Target sequence in this assay (P08588 whole entry): as the sequence (P08588 whole entry, looked up) above

[5] = target: T3, Beta-3 adrenergic receptor (Homo sapiens, UniProt P13945); experiment: as §1; format: functional
Target sequence in this assay (P13945 whole entry, looked up): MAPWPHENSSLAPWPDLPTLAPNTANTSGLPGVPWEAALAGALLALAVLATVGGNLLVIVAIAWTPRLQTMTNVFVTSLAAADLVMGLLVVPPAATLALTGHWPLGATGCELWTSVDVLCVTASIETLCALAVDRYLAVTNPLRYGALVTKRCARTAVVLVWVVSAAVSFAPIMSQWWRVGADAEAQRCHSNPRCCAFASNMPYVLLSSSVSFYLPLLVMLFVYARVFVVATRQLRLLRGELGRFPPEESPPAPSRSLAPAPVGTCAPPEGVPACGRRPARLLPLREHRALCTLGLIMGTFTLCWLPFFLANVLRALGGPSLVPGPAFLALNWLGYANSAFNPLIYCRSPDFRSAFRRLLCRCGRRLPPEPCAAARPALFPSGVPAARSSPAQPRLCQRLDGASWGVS

[6] = target: T1, Beta-2 adrenergic receptor; experiment: as §1; format: functional
Target sequence in this assay (P07550 whole entry, looked up): as the sequence (P07550 whole entry, looked up) above

[7] = Selectivity ratio (Beta-2EC50/ Beta-3EC50); format: functional
[8] = Half life (t1/2) value in dogs after an intravenous dose of 0.2 mg/Kg; format: ADME, organism-based, Canis lupus familiaris; settings: dog, in vivo
[9] = target: T1, Beta-2 adrenergic receptor; experiment: Concentration that causes 50% inhibition of human beta 2 adrenergic receptor (AR), expressed in CHO cells.; format: functional, cell-based
Target sequence in this assay (P07550 whole entry): as the sequence (P07550 whole entry, looked up) above

[10] = target: T3, Beta-3 adrenergic receptor; experiment: Ability to cause cAMP accumulation in CHO cells expressing human beta-3 AR expressed as the negative logarithm of the molar drug concentration; format: functional, cell-based
Target sequence in this assay (P13945 whole entry): as the sequence (P13945 whole entry, looked up) above

[11] = target: T3, Beta-3 adrenergic receptor; experiment: (§2) concentration-response expressed as a percent of the maximal response to R-(-) isoproterenol (ISO); format: functional
Target sequence in this assay (P13945 whole entry, looked up): as above

[12] = target: T2, Beta-1 adrenergic receptor; experiment: as §2; format: functional
Target sequence in this assay (P08588 whole entry, looked up): as the sequence (P08588 whole entry, looked up) above

[13] = target: T1, Beta-2 adrenergic receptor; experiment: Activity against human beta 2 adrenergic receptor (AR), expressed in CHO cells; format: functional, cell-based
Target sequence in this assay (P07550 whole entry): as the sequence (P07550 whole entry, looked up) above

[14] = target: T1, Beta-2 adrenergic receptor; experiment: concentration-response expressed as a percent of the maximal response to R-(-) isoprenaline (ISO); format: functional
Target sequence in this assay (P07550 whole entry, looked up): as above

[15] = plasma concentration at the 2.5 hour time; significant; format: ADME
[16] = target: T3, Beta-3 adrenergic receptor; experiment: Activity against human beta 3 adrenergic receptor (AR), expressed in CHO cells.; format: functional, cell-based
Target sequence in this assay (P13945 whole entry): as the sequence (P13945 whole entry, looked up) above

[17] = target: T2, Beta-1 adrenergic receptor; experiment: Ability to cause cAMP accumulation in CHO cells expressing human beta-1 AR expressed as the negative logarithm of the molar drug concentration; format: functional, cell-based
Target sequence in this assay (P08588 whole entry): as the sequence (P08588 whole entry, looked up) above

[18] = target: T3, Beta-3 adrenergic receptor
Target sequence in this assay (P13945 whole entry): as the sequence (P13945 whole entry, looked up) above

[19] = target: T1, Beta-2 adrenergic receptor; experiment: Ability to cause cAMP accumulation in CHO cells expressing human beta-2 AR expressed as the negative logarithm of the molar drug concentration; format: functional, cell-based
Target sequence in this assay (P07550 whole entry): as the sequence (P07550 whole entry, looked up) above

[20] = target: T2, Beta-1 adrenergic receptor; experiment: Receptor binding assay(Beta-1 adrenergic receptor) carried out with membranes prepared from human recombinant Sf9 cells expressing the cloned human receptor in the presence of [125I]iodocyanopindolol; format: cell membranes
Target sequence in this assay (P08588 whole entry): as the sequence (P08588 whole entry, looked up) above

[21] = target: T1, Beta-2 adrenergic receptor; experiment: Receptor binding assay(Beta-2 adrenergic receptor) carried out with membranes prepared from human recombinant Sf9 cells expressing the cloned human receptor in the presence of [125I]iodocyanopindolol; format: cell membranes
Target sequence in this assay (P07550 whole entry): as the sequence (P07550 whole entry, looked up) above

[22] = plasma concentration at the 2.5 hour time; format: ADME; settings: read-out: C
[23] = test system: Canis familiaris; experiment: Plasma clearance in dogs after an intravenous dose of 0.2 mg/Kg; format: ADME, organism-based, Canis lupus familiaris; settings: dog, in vivo
[24] = Volume distribution in dogs after an intravenous dose of 0.2 mg/Kg; format: ADME, organism-based; settings: dog, in vivo
[25] = Area under curve (AUC) value in dogs after an intravenous dose of 0.2 mg/Kg in 0.025 M aqueous methanesulfonic acid solution with 5% mannitol; format: ADME; settings: dog, in vivo
[26] = Area under curve (AUC) value in dogs after an intravenous dose of 0.2 mg/Kg in 0.025 M aqueous methanesulfonic acid solution with 5% mannitol at a concentration of 0.2; format: ADME, organism-based, Canis lupus familiaris; settings: dog, in vivo

Row | SMILES | Emax [2] [%] | Emax [5] [%] | Emax [6] [%] | EC50 [17] [nM] | EC50 [18] [nM] | EC50 [19] [nM] | Ratio [3] | Ratio [7] | other results
1 | C[C@H](Cc1ccc(OCC(=O)O)cc1)NC[C@H](O)c1cccc(Cl)c1 | 28 |  |  |  |  |  |  |  | Emax [1]: 80%
2 | C[C@H](CNc1cccc(CNC(=O)NS(=O)(=O)c2ccccc2)c1)NC[C@H](O)c1cccc(Cl)c1 | 15 | 105 | 23 |  |  |  | 25 | 16 | EC50 [4]: 398 nM; half-life [8]: < 1 h; EC50 [9]: 251 nM; EC50 [10]: 15.8 nM
3 | C[C@H](CNc1cccc(CCS(=O)(=O)NS(=O)(=O)c2ccccc2)c1)NC[C@H](O)c1cccc(Cl)c1 |  |  |  |  |  |  | > 500 | 630 | Emax [11]: 113%; Emax [12]: 21%; EC50 [13]: 1000 nM; Emax [14]: 31%; half-life [8]: < 1 h; C [15]: Not Active; EC50 [16]: 1.58 nM
4 | C[C@H](CNc1ccc(CC(=O)O)cc1)NC[C@H](O)c1cccc(Cl)c1 |  |  |  | 79.4 | 15.8 | 50.1 | 5 | 3.1 | IC50 [20]: 1000 nM; IC50 [21]: 794 nM; Emax [1]: 90%
5 | C[C@H](CNc1ccccc1)NC[C@H](O)c1cccc(Cl)c1 | 27 | 105 | 100 | 5.01 | 20 | 10 | 0.3 | 0.5 | 
6 | C[C@H](CNc1ccc(CC(=O)Nc2nccs2)cc1)NC[C@H](O)c1cccc(Cl)c1 | 14 | 101 | 31 | 3.16 | 1.26 | 7.94 | 2.5 | 6.3 | 
7 | CC(=O)NCc1ccc(NC[C@@H](C)NC[C@H](O)c2cccc(Cl)c2)cc1 | 15 | 123 | 75 | 7.94 | 12.6 | 3.16 | 0.6 | 0.3 | 
8 | C[C@H](CNc1cccc(CC(=O)O)c1)NC[C@H](O)c1cccc(Cl)c1 | 6 | 117 |  | > 10000 | 316 | 50.1 |  | 0.2 | Emax [1]: 80%
9 | C[C@H](CNc1ccc(C(=O)O)cc1)NC[C@H](O)c1cccc(Cl)c1 | 17 | 79 | 70 | 631 | 794 | 3160 | 0.8 | 4 | 

Continued, in another order:

Row | Emax [2] [%] | Emax [5] [%] | Emax [6] [%] | EC50 [17] [nM] | EC50 [18] [nM] | EC50 [19] [nM] | SMILES | Ratio [3] | Ratio [7] | other results
10 | 11 | 102 | 66 | 5.01 | 20 | 5.01 | C[C@H](CNc1ccc(CNS(C)(=O)=O)cc1)NC[C@H](O)c1cccc(Cl)c1 | 0.4 | 0.4 | 
11 | 22 | 98 | 28 | 20 |  | 10 | Cc1ccc(S(=O)(=O)NCCc2ccc(NC[C@@H](C)NC[C@H](O)c3cccc(Cl)c3)cc2)cc1 | 1 | 0.5 | EC50 [10]: 20 nM
12 | 8 | 98 | 16 |  | 6.31 |  | Cc1ccc(S(=O)(=O)NC(=O)Cc2cccc(NC[C@@H](C)NC[C@H](O)c3cccc(Cl)c3)c2)cc1 | > 794 | > 158 | IC50 [20]: 5010 nM; IC50 [21]: 15800 nM; concentration at 2.5 h [22]: 10.3 ng/mL; EC50 [4]: > 5010 nM; Clp [23]: 11.9 mL/min/kg; Vd [24]: 0.409 L/kg; half-life [8]: 1.7 h; EC50 [9]: > 1000 nM; AUC [25]: 279 ng·h/mL
13 | 10 | 104 | 22 | 251 | 25.1 | 398 | C[C@H](CNc1ccc(CCC(=O)O)cc1)NC[C@H](O)c1cccc(Cl)c1 | 10 | 16 | 
14 | 30 | 96 | 78 | 100 | 5.01 | 20 | C[C@H](CNc1ccc(CC(=O)NS(C)(=O)=O)cc1)NC[C@H](O)c1cccc(Cl)c1 | 20 | 4 | 
15 | 27 | 100 | 52 |  |  |  | C[C@H](CNc1ccc(CCS(=O)(=O)NC(=O)c2ccccc2)cc1)NC[C@H](O)c1cccc(Cl)c1 | 79 | 32 | EC50 [4]: 794 nM; Clp [23]: 8.7 mL/min/kg; Vd [24]: 0.478 L/kg; half-life [8]: 1.2 h; EC50 [9]: 316 nM; EC50 [10]: 10 nM; AUC [25]: 383 ng·h/mL
16 | 22 | 110 | 59 | 794 | 0.794 | 31.6 | C[C@H](CNc1ccc(CC(=O)NS(=O)(=O)c2ccccc2)cc1)NC[C@H](O)c1cccc(Cl)c1 | 1000 | 40 | 
17 | 23 | 98 | 34 | 631 | 1.26 | 79.4 | Cc1ccc(S(=O)(=O)NC(=O)Cc2ccc(NC[C@@H](C)NC[C@H](O)c3cccc(Cl)c3)cc2)cc1 | 501 | 63 | AUC [26]: 715 ng·h/mL; IC50 [20]: 2000 nM; IC50 [21]: 5010 nM; concentration at 2.5 h [22]: 42.1 ng/mL; Clp [23]: 4.7 mL/min/kg; Vd [24]: 0.2 L/kg; half-life [8]: 1 h
18 | 12 | 126 | 40 | 25.1 |  | 1 | Cc1ccc(CNC(=O)Cc2ccc(NC[C@@H](C)NC[C@H](O)c3cccc(Cl)c3)cc2)cc1 | 0.4 | 0.02 | EC50 [10]: 63.1 nM
